{"source": "patent US20140038953A1", "about": "“COMPOSITIONS AND METHODS FOR CARDIOVASCULAR DISEASE” (THE GENERAL HOSPITAL CORPORATION, priority 2011, published 2014)", "assay_type_in_all_cases": "in vivo", "key": {"MGP−/− mice [1]": {"test_system": "MGP−/− mice", "test": "Aortic calcification in MGP−/− mice (Alizarin red, OsteoSense)", "settings": "for aortic tissue calcium (Alizarin red staining): 28 days old", "experimental": "(§1) MGP−/− mice were treated with either vehicle or the small molecule BMP type I receptor inhibitor compound 13 (2.5 mg/kg once daily IP) from day 1 to 28. Compound 13 is used as a BMP inhibitor positive control compound in these experiments. Whole aortas were harvested for phospho-Smad 1/5/8 (P-Smad) immunohistochemistry, a marker of BMP signaling, and for Alizarin Red staining of calcium. Osteogenic activity in aortas was visualized ex vivo by the uptake of a fluorescent bisphosphonate imaging probe. MGP−/− mice were also treated with vehicle or compound 13 to ascertain if inhibition of BMP signaling could impact survival, using Kaplan-Meier and Cox regression analysis.\nMGP−/− mice were treated with intraperitoneal (IP) injections of either vehicle or compound 13 at 2.5 mg/kg/day from day 1-28. At day 28, aortas were harvested for both histology and RNA isolation. […] To further quantify aortic calcium, a fluorescent bisphosphonate agent that specifically binds to hydroxyapatite (OsteoSense 680 nm, Perkin Elmer) was used. (Aikawa E, et al. Multimodality molecular imaging identifies proteolytic and osteogenic activities in early aortic valve disease. Circulation. 2007; 115(3):377-386 and Zaheer A, et al. In vivo near-infrared fluorescence imaging of osteoblastic activity. Nature biotechnology. 2001; 19(12):1148-1154.) MGP−/− mice at 27 days of age treated with vehicle or compound 13 received OsteoSense via tail vein, and 24 h later, aortas were harvested for imaging. […] The reduction in BMP signaling and aortic calcification observed with compound 13 treatment of MGP−/− mice was associated with a >5-fold reduction in aortic Wnt3a gene expression, implicating the Wnt signaling pathway as an important mediator of BMP-dependent osteogenic differentiation (P<0.01).\nMGP−/− mice were treated with vehicle (n=7), compound 13 (2.5 mg/kg/day IP, n=6), or ALK3-Fc (2 mg/kg QOD IP, n=4) beginning on day 1 after birth. At day 27, mice were injected via the tail vein with a fluorescent bisphosphonate probe (Osteosense 680 nm, 2 nmol per mouse) that targets tissue calcification. Twenty-four hours later, aortae were harvested and imaged."}, "[2]": {"test_system": "phosphorylated SMADs 1/5/8", "test": "p-SMAD1/5/8 immunofluorescence in atherosclerotic lesions of LDLR−/− mice", "excerpt": "BMP signaling activity in the nascent lesions of LDLR^−/− mice was characterized. Phosphorylated BMP-responsive SMADs (p-SMAD1/5/8), effectors of the BMP signaling pathway that are retained in the nuclei of activated cells, were detected by immunofluorescence in endothelial cells, macrophages, and the media of atheromatous lesions (FIG. 1b), particularly in the lesser curvature of the aorta, beginning three weeks on HFD. Activation of BMP signaling persisted for at least 20 weeks and was abundant near calcific lesions (FIG. 3). To confirm that the activation of SMAD1/5/8 observed in the vessels of LDLR^−/− mice was attributable to BMP signaling, a BMP type I receptor inhibitor, compound 13, was administered (2.5 mg/kg ip daily for five days) to LDLR^−/− mice that had received HFD for 6 weeks.\nFor immunofluorescence, frozen sections were post-fixed in cold methanol and incubated with polyclonal antibodies specific for p-SMAD1/5/8 (1:100, Cell Signaling, Danvers, Mass.) or MAC2 (1:100, Cedarlane, Burlington, ON) followed by FITC labeled Goat Anti-Rabbit IgG or Rhodamine Goat Anti-Rat IgG (both Jackson Immuno Research, West Grove, Pa.), respectively.\nLDLr−/− mice were started on a hypercholesterolemic diet at 8 weeks, and treated with either vehicle (saline) or a BMP inhibitor positive control compound (compound 13, 2.5 mg/kg/d intraperitoneally) for an additional 8 weeks. Aortae were harvested and fixed, and then stained with antibodies sensitive for the BMP effector molecule, phosphorylated-SMAD1/5/8, and counterstained with DAPI nuclear stain. Within 6-8 weeks of being subjected to a high fat diet, LDR−/− mice developed fatty lesions in the intima of the aortic root, based on traditional histochemical staining techniques (data not shown). […] Thus, the cellular components of lipid rich plaques, predominantly macrophage-derived foam cells, had evidence of intense activation of the BMP signaling pathway. […]"}, "MGP−/− mice [3]": {"test_system": "MGP−/− mice", "test": "Survival of MGP−/− mice", "settings": "2.5 mg/kg/day IP from day 1, n=10 in each group", "experimental": "as §1\nTwenty MGP−/− mice were treated either with vehicle (n=10) or compound 13 (2.5 mg/kg/day IP, n=10) beginning at day 1 of life and followed for survival."}}, "note": "Entries after “also recorded” stand apart in the source; their conditions may differ.", "data": [{"compound": "c1ccc2c(-c3cnn4cc(-c5ccc(N6CCNCC6)cc5)cnc34)ccnc2c1", "note": "[Compound 13, 4-[6-(4-piperazin-1-ylphenyl)pyrazolo[1,5-a]pyrimidin-3-yl]quinoline]", "values": [{"measurement": "aortic tissue calcium (Alizarin red staining)", "setting": "MGP−/− mice [1]; treated from day 1", "result": "reduction in tissue calcium levels"}, {"measurement": "aortic tissue calcium (Alizarin red staining)", "setting": "MGP−/− mice [1]; treated from day 1, listed as compound 13", "result": "less calcification; also recorded: reduced vessel calcification"}, {"measurement": "arterial calcification by OsteoSense fluorescence", "setting": "MGP−/− mice [1]; day 1-28, compound 13 2.5 mg/kg/day IP, ALK3-Fc 2 mg/kg QOD IP", "result": "reduction of arterial calcification; also recorded: marked reduction in arterial calcification; also recorded: reduces vascular calcification"}, {"measurement": "reduction in aortic osteogenic activity compared to vehicle-treated controls", "setting": "MGP−/− mice [1]; fluorescent bisphosphonate probe, n=6 in each group", "result": 81, "unit": "%"}, {"measurement": "aortic osteogenic activity, normalized average intensity ±SEM", "setting": "MGP−/− mice [1]; vehicle 1.0±0.10", "result": "0.19±0.05"}, {"measurement": "p-SMAD1/5/8 within atherosclerotic lesions", "setting": "[2]; LDLR−/− mice on high fat diet 6 weeks, treated five days, compound 13 2.5 mg/kg ip daily, ALK3-Fc 2 mg/kg ip every other day", "result": "suppressed phosphorylation of SMADs 1/5/8; also recorded: markedly diminished the detection of p-SMAD1/5/8"}, {"measurement": "p-SMAD1/5/8 staining in aorta", "setting": "[2]; LDLR−/− mice treated during 6 weeks of high fat diet, compound 13 2.5 mg/kg ip daily, ALK3-Fc every other day, 2.5 mg/kg", "result": "decreased staining for phosphorylated SMAD1/5/8"}, {"measurement": "phosphorylated-SMAD1/5/8 staining in atheroma", "setting": "[2]; LDLr−/− mice, hypercholesterolemic diet and treatment 8 weeks, 2.5 mg/kg/d ip", "result": "greatly diminished"}, {"measurement": "Cox hazard ratio (survival)", "setting": "MGP−/− mice [3]", "result": 0.04}, {"measurement": "survival compared to vehicle-treated controls", "setting": "MGP−/− mice [3]", "result": "improved survival"}]}]}
